59 molecules from the METLIN SMRT retention time set (Domingo-Almenara et al. 2019) can be followed below.

The data set in a line: gradient 5% acetonitrile 3 min, to 50% in 2 min, to 85% in 15 min, held 3 min, 100 µL/min. The following applies: column: Zorbax Extend-C18 2.1 x 50 mm; eluents: water / acetonitrile, 0.1% formic acid. The procedure, abridged: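 Values are retention times taken from adduct peaks that software picked and an analyst inspected. The pure standards were run as mixtures of ~100 molecules on HPLC linked to a quadrupole time-of-flight mass spectrometer, in positive and negative ionization mode. A Zorbax Extend-C18 column (2.1 × 50 mm, 1.8 μm) was used at 100 μL/min with water and acetonitrile, each including 0.1% formic acid.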
Turning to `CCc1nc(-c2cc(S(=O)(=O)N3CCC(C(=O)N4CCN(CC)CC4)CC3)c(C)s2)no1`, the RP-LC retention time is 673 s.

The molecule `CC(C)NC(=O)C1CCCN(c2nc3ncn(CC(=O)N4CCc5ccccc5C4)c(=O)c3s2)C1` (centres undefined) had an RP-LC retention time of 723 s.

Take `O=C(NCC1COc2ccccc2O1)C(=O)c1c[nH]c2ccccc12` (centres undefined): the RP-LC retention time was 920 s.

Consider `Cc1cc(C)cc(N2CCC(NC(=O)c3cccc(C#N)c3)C2=O)c1` (centres undefined), for which the RP-LC retention time came out at 863 s.

In turn, `COc1ccc(-c2ccnn2-c2ccc(SCC(N)=O)nn2)cc1` displayed an RP-LC retention time of 777 s.

The molecule `O=C(C1CC1)N1CCCn2nc(-c3cccc(F)c3)cc2C1` yielded an RP-LC retention time of 784 s.

As for `O=C(Cn1cnc2c(sc3nc(-c4ccccc4)ccc32)c1=O)NCCc1ccc(Cl)cc1`, the RP-LC retention time came out at 1060 s.

Take `CN1CCN(Cc2ccc(C(=O)NCCC3=CCCCC3)cc2)C(=O)C1=O`: the RP-LC retention time turned out to be 698 s.

In the case of `CCCCc1cc(=O)oc2cc(C)cc(OCC(=O)N3CCC4(O)CCCCC4C3)c12` (centres undefined), the RP-LC retention time was 933 s.

In turn, `COc1cc(NC(=O)CCSc2nc3c(=O)n(C)c(=O)n(C)c3n2C)c(OC)cc1Cl` had an RP-LC retention time of 735 s.

Turning to `CCCN1C(=O)c2c(C(=O)NCCCc3ccccc3)ncn2CC1(C)C(=O)NC1CCCC1` (centres undefined), the RP-LC retention time came to 867 s.

Molecule `COc1cc(NC(=O)Cn2nc(N3CCC(C)CC3)c3ccccc3c2=O)cc(OC)c1` gave an RP-LC retention time of 1110 s.

As to `CCn1cc2c3c(cccc31)CN(C(=O)Nc1ccc3c(c1)OCCO3)CC2`, the RP-LC retention time is 908 s.

Molecule `CN1CCN(c2c3c(nc4nc(-c5ccccc5)nn24)CCCC3)CC1` had an RP-LC retention time of 582 s.

In the case of `Cc1ccc(NC(=O)N2CCC(C(C)C(=O)Nc3ccc(Cl)cc3)CC2)cc1` (centres undefined), the RP-LC retention time came to 951 s.

Consider `O=C(NCc1ccc(F)cc1)C1CCCN(S(=O)(=O)c2c[nH]c(C(=O)N3CCCC3)c2)C1` (centres undefined), for which the RP-LC retention time was 747 s.

The molecule `COCCCNC(=O)CCc1c(-c2ccc(F)cc2)nc2ccccn12` gave an RP-LC retention time of 592 s.

Molecule `COc1ccc(-c2nc3cc(C)ccc3o2)cc1NC(=O)NCc1ccco1` registered an RP-LC retention time of 1010 s.

The molecule `CS(=O)(=O)NCCc1ccc(CC2CCN(S(=O)(=O)c3cccnc3)CC2)cc1` registered an RP-LC retention time of 814 s.

In turn, `COc1cccc(NC(=O)N2CCCC(Cn3cnc4cccnc43)C2)c1` (centres undefined) returned an RP-LC retention time of 653 s.

`c1ccc2sc(C3(N4CCCC4)CCCCC3)cc2c1` registered an RP-LC retention time of 799 s.

On to `Cc1ccc(CNC(=O)C2CCN(c3cn[nH]c(=O)c3)C2)o1` (centres undefined), for which the RP-LC retention time came out at 626 s.

Molecule `Cn1c(=O)oc2cc(-c3noc(CNC(=O)C(c4ccccc4)c4ccccc4)n3)ccc21` came in with an RP-LC retention time of 928 s.

Molecule `COc1cccc(CNC(=O)C2CCN(c3cc(N4CCSCC4)ncn3)CC2)c1` had an RP-LC retention time of 656 s.

In turn, `CC(C)CCNC(=O)C1CCCN(c2cc(=O)n(C)c(=O)n2C)C1` (centres undefined) had an RP-LC retention time of 677 s.

`C=CCNC(=O)c1cn(-c2cc(-c3nc(C4CC4)no3)ccn2)cn1`: the RP-LC retention time is 800 s.

With `CCNC(=O)CC1=C2CCCCC2NC1=O` (centres undefined), the RP-LC retention time turned out to be 592 s.

Take `Cc1c(C(=O)NCCCN2CCOCC2)oc2ccc3c(c12)C(O)CC(C)(C)O3` (centres undefined): the RP-LC retention time was 612 s.

Turning to `O=C(Cn1cccn1)NC1CCc2nnc(C3CC3)n2CC1` (centres undefined), the RP-LC retention time is 543 s.

`COc1cccc(CNC(=O)CN2CCN(Cc3ccc(F)cc3Cl)C2=O)c1` returned an RP-LC retention time of 844 s.

With `CCOC(=O)c1noc2ncnc(Nc3ccccc3)c12`, the RP-LC retention time was determined as 1000 s.

In turn, `N#CCc1ccc(NC(=O)C2CCCN(S(=O)(=O)Cc3ccc(F)cc3)C2)cc1` (centres undefined) displayed an RP-LC retention time of 884 s.

The molecule `CCn1c(C(=O)NCCCN2CCCCC2)c(N2CCCC2=O)c2cc(F)ccc21` had an RP-LC retention time of 647 s.

On to `CCn1nc(C)c(CCNC(=O)Cn2c3ccccc3c3cnn(C)c(=O)c32)c1C`, for which the RP-LC retention time came to 627 s.

`O=C(Nc1cc(-c2cccnc2)no1)c1ccc(F)cc1`: the RP-LC retention time was 729 s.

`O=C1CCCCC(CNC(=O)c2cccs2)N1` (centres undefined) registered an RP-LC retention time of 616 s.

In turn, `O=C(NCCN1CCN(c2ccc(F)cc2)CC1)C(=O)NCc1ccc(F)cc1` showed an RP-LC retention time of 588 s.

As to `O=C(NC1CCN(c2cc(-c3cccs3)[nH]n2)C1)c1ccc(F)cc1F` (centres undefined), the RP-LC retention time amounted to 718 s.

For the molecule `Cc1nnc(N2CCC(C(=O)N3CCOCC3)CC2)c2nn(-c3ccc(Cl)cc3)c(C)c12`, the RP-LC retention time turned out to be 669 s.

On to `CN(Cc1ccccc1)C(=O)c1cc2cccnc2n(Cc2ccccc2)c1=O`, for which the RP-LC retention time was 950 s.

`CN(Cc1cc(Cl)ccc1F)C1CCc2nnc(C3CCOCC3)n2CC1` (centres undefined) returned an RP-LC retention time of 592 s.

Take `CC(Cc1cccs1)NC(=O)Cc1ccc(SC(C)C)cc1` (centres undefined): the RP-LC retention time came out at 969 s.

As for `Cc1ccc(F)cc1NS(=O)(=O)c1ccc2c(c1)C(=O)N(C)c1ncccc1O2`, the RP-LC retention time was determined as 924 s.

On to `Cc1ccc(-c2nc(-c3ccc4c(c3)ncn4CCN3CCCC3)no2)s1`, for which the RP-LC retention time is 639 s.

As to `CC(=O)N1c2ccc(S(=O)(=O)NCc3ccc4c(c3)CCN4C(=O)C(C)C)cc2CC1C` (centres undefined), the RP-LC retention time was determined as 801 s.

In turn, `Cn1ncc2c3ccccc3n(CC(=O)NCCc3ccco3)c2c1=O` displayed an RP-LC retention time of 904 s.

Turning to `Cc1ccccc1C1CC(=O)c2cnc(N3CCC(C(N)=O)CC3)nc2C1` (centres undefined), the RP-LC retention time stood at 750 s.

Molecule `COc1cc(OC)cc(-c2noc(CCn3nc(-c4ccc(Cl)cc4)ccc3=O)n2)c1` came in with an RP-LC retention time of 1060 s.

In the case of `COC(=O)c1sccc1S(=O)(=O)Nc1ccc(CC(=O)N2CCC(O)CC2)cc1`, the RP-LC retention time came to 882 s.

Take `COc1cccc(CNC2=NCCNC23CCN(S(=O)(=O)c2ccc(C)cc2C)CC3)c1`: the RP-LC retention time came out at 747 s.

`COc1ccc2c(c1)C1(CCN(S(=O)(=O)c3ccc(F)cc3F)C1)C(=O)N2` (centres undefined) had an RP-LC retention time of 841 s.

As to `Cn1ncc2c3ccccc3n(CCCC(=O)NCc3cccnc3)c2c1=O`, the RP-LC retention time is 612 s.

Molecule `Cc1sc(-c2cc(C(F)(F)F)on2)cc1S(=O)(=O)N1CCCCCC1` had an RP-LC retention time of 1270 s.

Turning to `Cc1noc(-c2ccc(OC3CN(C(=O)NCc4ccccc4)C3)cc2)n1`, the RP-LC retention time turned out to be 836 s.

Molecule `COc1ccc(Cn2nc3c(S(=O)(=O)N4CCc5ccccc5C4)cccn3c2=O)cc1` registered an RP-LC retention time of 946 s.

`CCCN1CCN(C(=O)CCC(=O)N2CCc3c(c(C(=O)N4CCCC4)nn3C)C2)CC1` yielded an RP-LC retention time of 577 s.

Turning to `CC1(C(=O)NCc2ccc(F)cc2)Cn2cnc(C(=O)N3CCOCC3)c2C(=O)N1C1CC1` (centres undefined), the RP-LC retention time was 616 s.

Turning to `Cc1ccc2c(NCc3ccc(Cl)cc3)c(-c3nc(C)no3)cnc2n1`, the RP-LC retention time was 727 s.

In the case of `COC(=O)C1=C(C)NC(=O)NC1c1cn(-c2ccccc2)nc1-c1ccc(Cl)cc1` (centres undefined), the RP-LC retention time was determined as 784 s.
